# Laboratory results taken from PubChem BioAssay (NCI).
#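 All cell lines were grown in 96-well plates and treated with compound for 48 hours. At the GI50, growth is halved. TGI denotes the concentration required for complete inhibition of growth.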
# Assays:
# Test in all cases: NCI-60 cell line screen, 48 h
# [1] = system: T-47D breast
# [2] = system: CCRF-CEM leukemia
# [3] = system: SW-620 colon
# [4] = system: HCC-2998 colon
# [5] = system: LOX IMVI melanoma
# [6] = system: SK-OV-3 ovarian
# [7] = system: NCI-H460 lung
# [8] = system: HCT-15 colon
# [9] = system: OVCAR-4 ovarian
# [10] = system: RPMI-8226 leukemia
SMILES,GI50 [1],TGI [1],GI50 [2],TGI [2],GI50 [3],TGI [3],GI50 [4],TGI [4],GI50 [5],TGI [5],GI50 [6],TGI [6],GI50 [7],TGI [7],GI50 [8],TGI [8],GI50 [9],TGI [9],GI50 [10],TGI [10]
CNC(=O)c1nn(C)c2c1C(C)(C)Cc1cnc(Nc3ccc(N4CCN(C)CC4)cc3)nc1-2,0.261 µM,> 5.55 µM,1.58 µM,> 10 µM,0.608 µM,> 10 µM,2.47 µM,> 10 µM,0.606 µM,> 10 µM,0.209 µM,1.54 µM,0.408 µM,> 10 µM,0.337 µM,> 10 µM,0.683 µM,> 8.34 µM,0.475 µM,> 3.98 µM
Cc1cc(I)cc(CN(C)CCCN2CCCC2)c1O,19 µM,57.2 µM,3.46 µM,38.1 µM,15.9 µM,35.4 µM,19.1 µM,35.6 µM,15 µM,30.6 µM,20.5 µM,61.2 µM,16.9 µM,38.4 µM,19.1 µM,47.5 µM,34 µM,> 90.1 µM,15.6 µM,37.5 µM
CCOC(=O)/C(C#N)=C\C=C(/Cl)c1ccc(Cl)cc1,2.83 µM,10.7 µM,0.484 µM,> 100 µM,5.94 µM,26.3 µM,16.1 µM,31.1 µM,4.82 µM,18.6 µM,> 46.8 µM,> 85.4 µM,31 µM,> 77.5 µM,15.1 µM,33.6 µM,27.8 µM,> 76.4 µM,3.71 µM,29.8 µM
C[C@H]1CCCC(O)C(O)[C@@H]2C[C@H](O[Si](C)(C)C(C)(C)C)C[C@H]2[C@H](O[Si](C)(C)C(C)(C)C)C(O)C(O)C(=O)O1 (stereo partly specified),28.4 µM,> 100 µM,28 µM,> 100 µM,94.7 µM,> 100 µM,17.5 µM,50.3 µM,,,54.6 µM,> 100 µM,11 µM,23.9 µM,,,,,> 100 µM,> 100 µM
COc1ccc(C(=O)c2ccc([As]=O)cc2)cc1 (stereo unspecified),0.0288 µM,0.204 µM,0.0296 µM,0.171 µM,0.0313 µM,0.111 µM,0.113 µM,0.246 µM,0.0237 µM,0.075 µM,0.181 µM,0.346 µM,0.172 µM,0.416 µM,0.0259 µM,0.11 µM,0.0454 µM,0.182 µM,0.0224 µM,0.0643 µM
C(=N\Nc1nnn(Cc2ccccc2)n1)/c1ccccc1,4.04 µM,> 100 µM,1.71 µM,> 47.5 µM,1.73 µM,> 100 µM,5.07 µM,> 100 µM,6 µM,> 100 µM,3.29 µM,34.7 µM,2.51 µM,> 33.8 µM,1.42 µM,> 100 µM,> 100 µM,> 100 µM,,
Cn1cc(C2=C(c3cn(C4CCN(Cc5ccccn5)CC4)c4ccccc34)C(=O)NC2=O)c2ccccc21,5.45 µM,> 100 µM,3.75 µM,> 100 µM,4.02 µM,> 100 µM,> 100 µM,> 100 µM,4.9 µM,> 100 µM,5.55 µM,> 100 µM,4.92 µM,> 100 µM,3.44 µM,> 100 µM,,,3.93 µM,> 100 µM
CN1/C(=C\C=C\C2=[N+](C)c3ccccc3C2(C)C)C(C)(C)c2ccccc21,0.0179 µM,1.27 µM,0.176 µM,12.6 µM,0.136 µM,3.79 µM,0.041 µM,1.25 µM,0.0445 µM,0.796 µM,0.152 µM,0.638 µM,0.0541 µM,0.922 µM,0.387 µM,7.85 µM,0.0922 µM,5.21 µM,0.0119 µM,1.33 µM
O=C(N/N=C/c1ccccc1O)c1ccccc1,0.457 µM,> 100 µM,0.35 µM,8.3 µM,2.84 µM,> 100 µM,0.6 µM,8.34 µM,1.47 µM,10.9 µM,5.14 µM,> 100 µM,1.18 µM,> 100 µM,0.893 µM,> 100 µM,0.725 µM,> 100 µM,0.583 µM,8.52 µM
O=C(Nc1ccc(Cl)c(Cl)c1)NS(=O)(=O)c1cnccc1Oc1ccc(F)cc1,2.8 µM,8.54 µM,2.47 µM,7.55 µM,3.01 µM,> 100 µM,4.43 µM,38.1 µM,3.24 µM,53.1 µM,3.87 µM,18.2 µM,3.09 µM,20.1 µM,3.32 µM,> 100 µM,3.26 µM,> 100 µM,2.01 µM,5.36 µM
O=C1CCCCN1CCCCC#Cc1cccc(C#Cc2cccnc2)c1,5.66 µM,26 µM,30.9 µM,> 100 µM,39.9 µM,> 100 µM,6.52 µM,23.1 µM,8.55 µM,25.9 µM,16.4 µM,32.2 µM,19.6 µM,> 100 µM,3.96 µM,17.7 µM,13.4 µM,32.1 µM,4.64 µM,28.7 µM
CCN(C(=O)/C=C/c1ccco1)c1ccccc1,,> 100 µM,,> 100 µM,,> 100 µM,,> 100 µM,,> 100 µM,,> 100 µM,,> 100 µM,,> 100 µM,,> 100 µM,,> 100 µM
CCCCCCCCCCCCCCCC[N+]1(C)CCOCC1,4.68 µM,25.2 µM,1.09 µM,3.02 µM,2.05 µM,10.4 µM,1.21 µM,2.75 µM,,,2.2 µM,7.36 µM,1.96 µM,4.73 µM,2.55 µM,7.99 µM,,,1.3 µM,4.06 µM
